Laboratory results: patent publication US20170053081A1, “METHODS AND MATERIALS FOR CHARACTERIZING INTESTINAL BARRIER FUNCTION” (THE ARIZONA BOARD OF REGENTS ON BEHALF OF THE UNIVERSITY OF …, priority 2014, published 2017)

Legend:
[1] = test system: intestinal barrier function; test: Intestinal barrier function biomarker panel (plasma FABP2, claudin 3, citrulline) in children after cardiopulmonary bypass; conditions: for Association with changes in post-operative FABP2, claudin3, or citrulline: caudal or spinal, post-operative pain management, p>0.05
Experimental: A panel of plasma biomarkers was used to reflect intestinal epithelial cellular and paracellular structure (FABP2 and claudin 3), as well as cellular and paracellular function (citrulline and DSPT). In particular, twenty children aged newborn to 18 years undergoing repair or palliation of congenital heart disease with CPB were examined. Plasma FABP2, claudin 3, and citrulline were measured after induction of general anesthesia, and at 6, 12, 24, 48, and 120 hours post-operatively.
(§1) Inclusion criteria were age greater than 37 weeks corrected gestational age and a diagnosis of CHD requiring surgical repair or palliation with the use of CPB. Exclusion criteria were known pre-existing gastrointestinal dysfunction, immune dysfunction, active intracranial bleeding, and anuric renal failure. All operations were performed by two surgeons. CPB and anesthetic regimens were per usual care.
Blood samples for measurement of plasma FABP2, claudin 3, and citrulline were collected from indwelling intravascular catheters pre-operatively after induction of general anesthesia, but prior to CPB, and at 6, 12, 24, 48, and ≧120 hours post-operatively. […]
Plasma concentrations of human FABP2 were evaluated by ELISA according to the manufacturer's protocol (Standards range: 10 000 pg/ml to 156.25 pg/ml) (R&D Systems, Minneapolis, Minn.). Claudin 3 concentration was evaluated by ELISA in plasma from patients according to manufacturer's instruction (standard range from 20 ng/ml to 0.312 ng/ml) (Uscn life science Inc, Wuhan, China). […]
Samples were separated on Phenomenex Luna HILIC 200A SB-C18, 3 μm, 150×2.00 mm column (Torrance, Calif.) using Paradigm MS4B-multi-dimensional separations module (Michrom BioResources, Inc., Auburn, Calif.). […] Full injection loop (20 μl) was used to introduce 2 μl sample diluted with 18 μl of solvent B. AB SCIEX API 3000 triple-quadrupole mass spectrometer (Applied Biosystems, Foster City, Calif.) controlled by Analyst 1.5.1 in-line with the HPLC was used for citrulline detection and quantitative analysis.

plasma FABP2 = test: Serial plasma FABP2 (ELISA) in children after cardiopulmonary bypass for CHD, by treatment factor; conditions: children after CPB; for Association of infusion with elevation in plasma FABP2 over time: vasoactive infusions, any dose, p<0.01
Experimental: as §1
Blood samples for measurement of plasma FABP2, claudin 3, and citrulline were collected from indwelling intravascular catheters pre-operatively after induction of general anesthesia, but prior to CPB, and at 6, 12, 24, 48, and ≧120 hours post-operatively. Final samples at ≧120 hours were collected between 120 and 168 hours post-operatively to evaluate the return to baseline values. Control samples were obtained intra-operatively from the CPB circuits prior to connection to the patient. […]
Clinical data included candidate factors likely to alter intestinal barrier function. […] Vasoactive-inotrope score (VIS) was determined at time of sample collection and was previously validated (see, e.g., Gaies, et al., Pediatric critical care medicine: a journal of the Society of Critical Care Medicine and the World Federation of Pediatric Intensive and Critical Care Societies 2010; 11:234-8).
Plasma concentrations of human FABP2 were evaluated by ELISA according to the manufacturer's protocol (Standards range: 10 000 pg/ml to 156.25 pg/ml) (R&D Systems, Minneapolis, Minn.). Claudin 3 concentration was evaluated by ELISA in plasma from patients according to manufacturer's instruction (standard range from 20 ng/ml to 0.312 ng/ml) (Uscn life science Inc, Wuhan, China).
Data were analyzed using STATA SE/11 software. […] As citrulline values were normally distributed, the effect of binary variables on citrulline were evaluated with a Student's t-test. […] The effect continuous and categorical variables over time on repeated log-transformed plasma FABP2, log-transformed claudin 3, and citrulline was evaluated with multi-level mixed-effects linear regression. […]

| Compound | Association with changes in post-operative FABP2, claudin3, or citrulline [1] | Association with elevated plasma FABP2 (plasma FABP2; p=0.03) | Association of infusion with elevation in plasma FABP2 over time (plasma FABP2) | Risk for intestinal barrier dysfunction ([1]; children undergoing CPB, post-operative use to maintain mean arterial blood pressure) |
| --- | --- | --- | --- | --- |
| CCCCN1CCCCC1C(=O)Nc1c(C)cccc1C (stereo not drawn) [bupivicaine] | not associated with changes | – | – | – |
| CNC[C@H](O)c1ccc(O)c(O)c1 [epinephrine] | – | associated with elevated plasma FABP2 | associated with | – |
| CN1CC[C@]23c4c5ccc(O)c4O[C@H]2[C@@H](O)C=C[C@H]3[C@H]1C5 [morphine] | not associated with changes | – | – | – |
| NC(=O)CC[C@@H]1NC(=O)[C@H](Cc2ccccc2)NC(=O)[C@H](Cc2ccc(O)cc2)NC(=O)[C@@H](N)CSSC[C@@H](C(=O)N2CCC[C@H]2C(=O)N[C@@H](CCCN=C(N)N)C(=O)NCC(N)=O)NC(=O)[C@H](CC(N)=O)NC1=O [vasopressin] | – | – | associated with | increase the risk for intestinal barrier dysfunction |
